In brackets after ≈: the same amount, converted by molar mass.
What was measured:
SARS-CoV-2 [1] = assay: Antiviral activity against SARS-CoV-2 infected in African green monkey Vero E6 cells assessed as inhibition of viral growth incubated for 24 hrs by qRT-PCR analysis; format: functional, organism-based; settings: Severe acute respiratory syndrome coronavirus 2, Vero C1008, 24 h
[2] = target: Replicase polyprotein 1ab (Severe acute respiratory syndrome coronavirus 2, UniProt P0DTD1)
Description: Inhibition of SARS CoV-2 main protease

SARS-CoV-2 [3] = assay: Antiviral activity against SARS-CoV-2 infected in african green monkey Vero E6 cells assessed as reduction in viral replication; format: functional, organism-based; settings: Severe acute respiratory syndrome coronavirus 2, Vero C1008
SARS-CoV-2 [4] = assay: Antiviral activity against SARS-CoV-2 infected in human Calu-3 cells assessed as reduction in viral replication incubated for 48 hrs by RT-PCR; format: functional, organism-based; settings: Severe acute respiratory syndrome coronavirus 2, Calu-3, 48 h
SARS-CoV-2 [5] = assay: Antiviral activity against SARS-CoV-2 infected in african green monkey Vero E6 cells assessed as reduction in viral growth measured for 2 days by qRT-PCR; format: functional, organism-based; settings: Severe acute respiratory syndrome coronavirus 2, Vero C1008, 48 h
SARS-CoV-2 [6] = assay: Antiviral activity against SARS-CoV-2 infected in African green monkey Vero E6 cells assessed as reduction in viral replication measured after 3 days by qRT-PCR analysis; format: functional, organism-based; settings: Severe acute respiratory syndrome coronavirus 2, Vero C1008, 72 h
SARS-CoV-2 [7] = assay: Antiviral activity against SARS-CoV-2 infected in human A549-ACE2 cells assessed as viral growth inhibition; format: functional, organism-based; settings: Severe acute respiratory syndrome coronavirus 2, A549-ACE2
SARS-CoV-2 [8] = assay: Antiviral activity against SARS-CoV-2 infected in monkey Vero E6 cells assessed as inhibition of […]; format: functional, organism-based; settings: Severe acute respiratory syndrome coronavirus 2, Vero C1008

C[C@@H]1CC[C@H]2[C@@H](C)C(=O)O[C@@H]3O[C@@]4(C)CC[C@@H]1[C@]32OO4 [ARTEMISININ]
EC50 (SARS-CoV-2 [1]): 10.3 µM

COc1ccc2cc1Oc1ccc(cc1)C[C@H]1c3c(cc4c(c3Oc3cc5c(cc3OC)CCN(C)[C@@H]5C2)OCO4)CCN1C [CEPHARANTHINE]
IC50 [2]: 0.1 µM

O=C(O[C@@H]1O[C@@H]2COC(=O)c3cc(O)c(O)c(O)c3-c3c(cc(O)c(O)c3O)C(=O)O[C@H]([C@H]1O)[C@@H]2O)c1cc(O)c(O)c(O)c1 [CORILAGIN]
EC50 (SARS-CoV-2 [3]): 0.13 µM

COc1cc(/C=C/C(=O)CC(=O)/C=C/c2ccc(O)c(OC)c2)ccc1O [CURCUMIN]
EC50 (SARS-CoV-2 [4]): 38 µM | EC50 (SARS-CoV-2 [5]): 38 µM

O=C(O[C@@H]1Cc2c(O)cc(O)cc2O[C@@H]1c1cc(O)c(O)c(O)c1)c1cc(O)c(O)c(O)c1 [EPIGALOCATECHIN GALLATE]
EC50 (SARS-CoV-2 [6]): 10 µM

CC1(C)[C@@H](O[C@H]2O[C@H](C(=O)O)[C@@H](O)[C@H](O)[C@H]2O[C@@H]2O[C@H](C(=O)O)[C@@H](O)[C@H](O)[C@H]2O)CC[C@]2(C)[C@H]3C(=O)C=C4[C@@H]5C[C@@](C)(C(=O)O)CC[C@]5(C)CC[C@@]4(C)[C@]3(C)CC[C@@H]12 [GLYCYRRHIZIN]
EC50 (SARS-CoV-2 [7]): 0.44 µg/mL (≈ 0.535 µM)

O=c1c(O)c(-c2cc(O)c(O)c(O)c2)oc2cc(O)cc(O)c12 [MYRICETIN]
EC50 (SARS-CoV-2 [8]): 8 µM

Cc1ccc(C(=O)Nc2ccc(S(=O)(=O)O)c3cc(S(=O)(=O)O)cc(S(=O)(=O)O)c23)cc1NC(=O)c1cccc(NC(=O)Nc2cccc(C(=O)Nc3cc(C(=O)Nc4ccc(S(=O)(=O)O)c5cc(S(=O)(=O)O)cc(S(=O)(=O)O)c45)ccc3C)c2)c1 [SURAMIN]
EC50 (SARS-CoV-2 [3]): 2.93 µM

Source: ChEMBL document CHEMBL5505956, “Plant-derived strategies to fight against severe acute respiratory syndrome coronavirus 2” (Eur J Med Chem, 2024)
